We go through eight compounds from ChEMBL document CHEMBL4725454, “Degradation of LRRK2 in the Treatment of Parkinson's Disease” (ACS Med Chem Lett, 2020).

Test [1] addresses Protein cereblon/Leucine-rich repeat serine/threonine-protein kinase 2 (Mus musculus, UniProt Q5S006+Q8C7D2). The test is described as follows: Protac activity at CRBN/LRRK2 in mouse MEF cells assessed as induction of LRRK2 degradation by measuring reduction in LRRK2 phosphorylation at S935 residue by Invitrogen Adapta assay. The test is classed as cell-based.
In test [2] the target is Protein cereblon/Leucine-rich repeat serine/threonine-protein kinase 2 (Mus musculus, UniProt Q5S006+Q8C7D2, G2019S). The test is described as follows: Protac activity at CRBN/LRRK2 G2019S homozygous knock-in mutant in mouse MEF cells assessed as induction of LRRK2 degradation by measuring reduction in LRRK2 phosphorylation at S935 residue by Invitrogen Adapta assay. The test is classed as cell-based.

As to `CC1(Oc2ccc3[nH]nc(-c4cc(N5CCN(C(=O)CCOCCNc6cccc7c6C(=O)N(C6CCC(=O)NC6=O)C7=O)CC5)ncn4)c3c2)CC1` (stereo unspecified), the IC50 in test [1] was 1.59 nM; in test [2], 1.08 nM.

As for `CC1(Oc2ccc3[nH]nc(-c4cc(N5CCN(C(=O)CCOCCNc6cccc7c6C(=O)N(C6CCC(=O)NC6=O)C7)CC5)ncn4)c3c2)CC1` (stereo unspecified), the results for the IC50 in test [1] and in test [2] were 2.5 nM and 1.47 nM, respectively.

On to `CC1(Oc2ccc3[nH]nc(-c4cc(N5CCN(C(=O)CCOCCOCCNc6cccc7c6C(=O)N(C6CCC(=O)NC6=O)C7)CC5)ncn4)c3c2)CC1` (stereo unspecified), for which the IC50 is 2.58 nM in test [1] and 2.24 nM in test [2].

Consider `CC1(Oc2ccc3[nH]nc(-c4cc(N5CCN(C(=O)CCOCCOCCOCCOCCNc6cccc7c6C(=O)N(C6CCC(=O)NC6=O)C7=O)CC5)ncn4)c3c2)CC1` (stereo unspecified), for which the IC50 in test [1] came out at 1.46 nM; in test [2] it was 0.98 nM.

With `CNc1nc(Nc2ccc(C(=O)N3CCN(C(=O)CCOCCOCCOCCOCCNc4cccc5c4C(=O)N(C4CCC(=O)NC4=O)C5=O)CC3)cc2OC)ncc1C(F)(F)F` (stereo unspecified), the figures for the IC50 in test [1] and in test [2] were 4 nM and 2 nM, respectively.

Regarding `CNc1nc(Nc2ccc(C(=O)N3CCN(C(=O)CCCCCCCCOc4cccc5c4C(=O)N(C4CCC(=O)NC4=O)C5=O)CC3)cc2OC)ncc1C(F)(F)F` (stereo unspecified), the concentration for half-maximal inhibition (IC50) in test [1] amounted to 2 nM; in test [2] it was 1 nM.

Consider `CC1(Oc2ccc3[nH]nc(-c4cc(N5CCN(C(=O)CCOCCOCCNc6cccc7c6C(=O)N(C6CCC(=O)NC6=O)C7=O)CC5)ncn4)c3c2)CC1` (stereo unspecified), for which the figures for the IC50 in test [1] and in test [2] were 1.24 nM and 1.13 nM, respectively.

As for `CC1(Oc2ccc3[nH]nc(-c4cc(N5CCN(C(=O)CCOCCOCCOCCOCCNc6cccc7c6C(=O)N(C6CCC(=O)NC6=O)C7)CC5)ncn4)c3c2)CC1` (stereo unspecified), the IC50 was 3.14 nM in test [1] and 3.16 nM in test [2].

The term IC50 denotes the concentration needed to halve the response being measured.
